Data as given in US20240368191A1, “HETEROCYCLIC COMPOUNDS AND USES THEREOF” (Kumquat Biosciences Inc., priority 2021, published 2024).

Details: microsomes

Compound: N#Cc1cnn(C(=O)N2C3CCC2CN(c2nc(OC[C@@]45CCCN4C[C@H](F)C5)nc4c(F)c(-c5ccc(F)c6sc(N)c(C#N)c56)c(Cl)cc24)C3)c1 [Compound A278, 1-(3-(7-(2-amino-3-cyano-7-fluorobenzo[b]thiophen-4-yl)-6-chloro-8-fluoro-2-(((2R,7aS)-2-fluorotetrahydro-1H-pyrrolizin-7a(5H)-yl)methoxy)quinazolin-4-yl)-3,8-diazabicyclo[3.2.1]-octane-8-carbonyl)-1H-pyr-azole-4-carbonitrile]
- T½ microsomal stability: greater than 10 mins
